Experiment: Study HDP-CDV-201: safety and tolerability (adverse events, laboratory abnormalities, discontinuations)
Type: in vivo, human (adult allogeneic HSCT recipients)
Experimental: Clinical Studies of HDP-CDV were performed and described in detail in the following Examples. For example, HDP-CDV-201 is a placebo-controlled, dose-escalating trial in HSCT CMV (R+) recipients, evaluating the ability of HDP-CDV to prevent or control CMV infection was carried out. Five cohorts were established in which participants or subjects received either placebo or the HDP-CDV orally, in doses ranging from 40 mg weekly (QW) to 200 mg twice weekly (BIW). Subjects who were post-HSCT were enrolled at the time of engraftment and randomized to HDP-CDV or placebo (3 to 1 ratio) and received blinded therapy until approximately 100 day post-transplantation. HDP-CDV doses were 40 mg QW, 100 mg QW, 200 mg QW, 200 mg BIW and 100 mg BIW. Escalation to the next dose was decided by the data monitoring committee after review of the safety data from the previous Cohort. Subjects who developed CMV disease or CMV infection requiring pre-emptive therapy with local standard of care were discontinued from blinded therapy and followed for 4 weeks. Subjects who completed treatment with blinded therapy were followed for 8 weeks post-therapy.
Data from Study HDP-CDV-201 also provided characterization of the safety and tolerability profile of HDP-CDV when administered for the prevention or control of CMV infection in high risk (R^+) post-HSCT adult subjects.
The Safety population (SAFETY) included all randomized subjects who took at least one dose of study treatment. This population was used to summarize safety outcomes based on the treatment actually received, in cases where a subject was treated contrary to the randomization schedule.
The safety and tolerability profile of HDP-CDV, including subject demographics and Baseline characteristics; the AE profile; and laboratory abnormalities of interest were analyzed in the cohorts followed in this investigation.
Subjects completing the treatment period received a full course of study medication; those completing the entire study attended visits through 8 weeks of follow up. Subjects who discontinued treatment may have done so for protocol specified reasons (e.g. development of clinically significant CMV infection requiring preemptive treatment with excluded anti-CMV medications) or for other reasons (e.g., withdrawal, adverse events, loss to follow-up). The disposition of subjects in Study HDP-CDV-201 during the double-blind, placebo-controlled treatment period (through Week 11) is listed by dosing Cohort in TABLE 23.
Adverse events were examined by severity to ensure that all safety signals were identified in this study population. Because of the frequency of events in HSCT recipients, particular attention was given to evaluation of Grade 3 […], 4 (severe), and 5 (fatal) adverse events.
Only those preferred terms for which at least one Grade 3 or higher event was experienced in any treatment group are listed. Cytomegalovirus-related AEs are excluded from this analysis.
HDP-CDV is a lipid conjugate of CDV. Because CDV is known to have adverse effects on renal function and bone marrow, decreased GFR and persistent neutropenia were identified as AEs of special interest. Key renal and hematological (TABLE 30) laboratory parameters were measured and listed below by Study HDP-CDV-201 treatment groups. TABLE 30 includes abnormal levels of serum creatinine, neutrophils, platelets, WBCs, and hemoglobin and includes data at Screening and during the treatment period.
A common metric for unit based dosing of medications is by weight (mg/kg). When the distribution of weights was examined for all subjects participating in the study, the median was 78 kg and the lower 25th percentile weight was approximately 65 kg, which translates to a cut-off of ˜3 mg/kg for a 200 mg total weekly dose. Based upon this approach, a cut-off of 3 mg/kg was used to assess the frequency of diarrhea and associated GI AEs reported for the subjects in Cohorts 3 or 4a (TABLE 40).

[1] = Cohort 4, 200 mg BIW, through Week 11

CCCCCCCCCCCCCCCCOCCCOP(=O)(O)COC(CO)Cn1ccc(N)nc1=O (stereo not shown) [HDP-CDV]
Dyspepsia leading to study drug withdrawal (Cohort 4, 200 mg BIW, N = 30): 0%
Nausea leading to study drug withdrawal (Cohort 4, 200 mg BIW, N = 30): 1 (3.3%)
TEAE ALT increased (Cohort 4, 200 mg BIW, N = 30): 10 (33.3%) n (%)
TEAE AST increased (Cohort 4, 200 mg BIW, N = 30): 7 (23.3%) n (%)
TEAE Abdominal pain (Cohort 4, 200 mg BIW, N = 30): 11 (36.7%) n (%)
TEAE Abdominal pain, Upper (Cohort 4, 200 mg BIW, N = 30): 3 (10.0%) n (%)
TEAE Acute GVHD (Cohort 4, 200 mg BIW, N = 30): 24 (80.0%) n (%)
TEAE Acute Myeloid Leukemia recurrent (Cohort 4, 200 mg BIW, N = 30): 0 n (%)
TEAE Acute Renal Failure (Cohort 4, 200 mg BIW, N = 30): 3 (10.0%) n (%)
TEAE Anxiety (Cohort 4, 200 mg BIW, N = 30): 2 (6.7%) n (%)
TEAE Arthralgias (Cohort 4, 200 mg BIW, N = 30): 1 (3.3%) n (%)
TEAE Back Pain (Cohort 4, 200 mg BIW, N = 30): 3 (10.0%) n (%)
TEAE Blood lactate dehydrogenase increased (Cohort 4, 200 mg BIW, N = 30): 3 (10.0%) n (%)
TEAE Creatinine increased (Cohort 4, 200 mg BIW, N = 30): 2 (6.7%) n (%)
TEAE Cytomegalovirus viremia (Cohort 4, 200 mg BIW, N = 30): 5 (16.7%) n (%)
TEAE Decreased appetite (Cohort 4, 200 mg BIW, N = 30): 5 (16.7%) n (%)
TEAE Diarrhoea (Cohort 4, 200 mg BIW, N = 30): 21 (70.0%) n (%)
TEAE Dysgeusia (Cohort 4, 200 mg BIW, N = 30): 3 (10.0%) n (%)
TEAE Fatigue (Cohort 4, 200 mg BIW, N = 30): 0 n (%)
TEAE GI Reflux Disease (Cohort 4, 200 mg BIW, N = 30): 2 (6.7%) n (%)
TEAE Gamma-glutamyltransferase increased (Cohort 4, 200 mg BIW, N = 30): 3 (10.0%) n (%)
TEAE Generalized oedema (Cohort 4, 200 mg BIW, N = 30): 3 (10.0%) n (%)
TEAE Hyperbilirubinaemia (Cohort 4, 200 mg BIW, N = 30): 5 (16.7%) n (%)
TEAE Hyperglycaemia (Cohort 4, 200 mg BIW, N = 30): 8 (26.7%) n (%)
TEAE Hyperkalemia (Cohort 4, 200 mg BIW, N = 30): 3 (10.0%) n (%)
TEAE Hypocalcaemia (Cohort 4, 200 mg BIW, N = 30): 3 (10.0%) n (%)
TEAE Hypokalaemia (Cohort 4, 200 mg BIW, N = 30): 5 (16.7%) n (%)
TEAE Hyponatraemia (Cohort 4, 200 mg BIW, N = 30): 2 (6.7%) n (%)
TEAE Increased leukocytosis (Cohort 4, 200 mg BIW, N = 30): 3 (10.0%) n (%)
TEAE Insomnia (Cohort 4, 200 mg BIW, N = 30): 2 (6.7%) n (%)
TEAE Liver function test abnormal (Cohort 4, 200 mg BIW, N = 30): 3 (10.0%) n (%)
TEAE Malnutrition (Cohort 4, 200 mg BIW, N = 30): 3 (10.0%) n (%)
TEAE Nausea (Cohort 4, 200 mg BIW, N = 30): 11 (36.7%) n (%)
TEAE Neutropenia (Cohort 4, 200 mg BIW, N = 30): 4 (13.3%) n (%)
TEAE Oedema peripheral (Cohort 4, 200 mg BIW, N = 30): 3 (10.0%) n (%)
TEAE Oral Candidiasis (Cohort 4, 200 mg BIW, N = 30): 1 (3.3%) n (%)
TEAE Pneumonia (Cohort 4, 200 mg BIW, N = 30): 1 (3.3%) n (%)
TEAE Pyrexia (Cohort 4, 200 mg BIW, N = 30): 2 (6.7%) n (%)
TEAE Recurrent flatulence (Cohort 4, 200 mg BIW, N = 30): 3 (10.0%) n (%)
TEAE Renal Failure (Cohort 4, 200 mg BIW, N = 30): 0 n (%)
TEAE Staphylococcal Bacteremia (Cohort 4, 200 mg BIW, N = 30): 1 (3.3%) n (%)
TEAE Thrombocytopenia (Cohort 4, 200 mg BIW, N = 30): 5 (16.7%) n (%)
TEAE Tremor (Cohort 4, 200 mg BIW, N = 30): 2 (6.7%) n (%)
TEAE Vomiting (Cohort 4, 200 mg BIW, N = 30): 8 (26.7%) n (%)
Vomiting leading to study drug withdrawal (Cohort 4, 200 mg BIW, N = 30): 0%
All AEs, Grade 5 (deaths) (Cohort 4, 200 mg BIW, N = 30, entire study duration): 4 (13.3%)
Subjects completed treatment [1]: 7 (23.3%) n (%)
Subjects who permanently discontinued treatment [1]: 23 (76.7%) n (%)
Grade of hepatobiliary AE hyperbilirubinemia, subject 4042 (Cohort 4, drug interrupted): 1
Outcome of hepatobiliary AE hyperbilirubinemia, subject 4042 (Cohort 4, drug interrupted): recovered/resolved
Relationship of hepatobiliary AE hyperbilirubinemia, subject 4042 (Cohort 4, drug interrupted): not related
Grade of hepatobiliary AE acute liver injury, subject 4008 (Cohort 4, drug withdrawn): 3
Outcome of hepatobiliary AE acute liver injury, subject 4008 (Cohort 4, drug withdrawn): recovered/resolved
Relationship of hepatobiliary AE acute liver injury, subject 4008 (Cohort 4, drug withdrawn): possibly related
subjects discontinued due to neutropenia (Cohort 4A): 1 subject(s)

Reference: patent publication US20140303092A1 (CHIMERIX, INC., priority 2011, published 2014)
